Marks after values point to notes of the source that are not given here.
Legend:
[1] = rabbit, in vivo
[2] = rabbit, in vivo; remark: listed apart in the source

**Q.** For “Monosulphate Heptadodecyl Sucrose [S12, reference compound]”, which “Body temperature one day after the first immunization, Mean” value [1] is on record?
**A.** Its value is 39.4^a ° C.

**Q.** What about the “Body temperature one day after the second immunization, Mean” value [1] of the same substance?
**A.** The value was 39.7^a ° C.

**Q.** And the “rise in body temperature one day after the first and second immunization” value [1]?
**A.** Its value is “about 0.5 °C”.

**Q.** What about the “Number of animals demonstrating a detectable adverse local reaction four weeks after the first immunization” value [2] of the same substance?
**A.** Its value is 1/6 (redness).

**Q.** And the “Number of animals demonstrating a detectable adverse local reaction one week after the second immunization” value [2]?
**A.** The value was 2/6 (redness/swelling).

From patent publication US10342867B2 (priority 2014, dated 2019)
